Our source for the IC50 values is ChEMBL document CHEMBL1132825, “Aminoanthraquinones as novel ligands at the polyamine binding site on the N-methyl-D-aspartate receptor complex” (Bioorg Med Chem Lett, 2000).

Experiment [1] concerns the target Glutamate NMDA receptor. Put plainly: Displacement of [3H]MK-801 from N-methyl-D-aspartate glutamate receptor. The experiment is classed as protein-complex assay, Rattus norvegicus. (In general: Displacement assays read how much labelled ligand stays bound in the presence of the test substance.)
The target in experiment [2] is Glutamate NMDA receptor. The experiment is described as follows: Displacement of [3H]-SPD from N-methyl-D-aspartate glutamate receptor. The experiment is classed as protein-complex assay, Rattus norvegicus.

A value given as a limit tells only on which side of the number the result lay.

In the case of `Nc1ccc2c(c1)C(=O)c1ccccc1C2=O`, the IC50 came out at 119 µM in experiment [1] and 116 µM in experiment [2].
For `Nc1ccc2c(c1N)C(=O)c1ccccc1C2=O` the same measures were 414 µM and 602 µM.
In the case of `Nc1ccc(O)c2c1C(=O)c1c(N)ccc(O)c1C2=O`, the IC50 in experiment [1] and in experiment [2] was more than 1000 µM in each case.
`Nc1ccc(N)c2c1C(=O)c1c(N)ccc(N)c1C2=O`: the IC50 in experiment [1] and in experiment [2] was more than 1000 µM in each case.
In the case of `Nc1cccc2c1C(=O)c1ccccc1C2=O`, the figures for the 50% inhibitory concentration (IC50) in experiment [1] and in experiment [2] were 140 µM and 218 µM, respectively.
On the same counts, the results for `Nc1cccc2c1C(=O)c1cccc(N)c1C2=O` are 323 µM and 338 µM.
For `Nc1ccc2c(c1)C(=O)c1ccc(N)cc1C2=O`, the IC50 in experiment [1] and in experiment [2] was more than 1000 µM in each case.
In the case of `Nc1cccc2c1C(=O)c1c(N)ccc(N)c1C2=O`, the IC50 in experiment [1] turned out to be 232 µM; in experiment [2], 184 µM.
On the same counts, the results for `Nc1ccc(N)c2c1C(=O)c1ccccc1C2=O` are 567 µM and 412 µM.
Regarding `Nc1ccc(O)c2c1C(=O)c1ccccc1C2=O`, the IC50 in experiment [1] amounted to 158 µM; in experiment [2], 179 µM.
For `O=C1c2ccccc2C(=O)c2ccccc21` [ANTHRAQUINONE] the same measures were more than 1000 µM and more than 1000 µM.

As usually defined, the IC50 is the midpoint of a concentration-inhibition curve. Low values mean higher potency, high ones lower potency.
